The text below walks through data of patent US20130225530A1 (priority 2010, published 2013).

Where two headings read alike, the source gives them in different places.

Data set [1] concerns RNAPII C-terminal domain Ser2 phosphorylation. The experiment in a line: Phenylephrine-induced phosphorylation of RNAPII in ventricular cardiac myocytes. Format: cell-based, rat. The source says:
To test Wogonin in hypertrophic conditions, ventricular cardiac myocytes from neonatal rats were isolated. Hypertrophy was induced by stimulating the cells (cardiomyocytes) with phenylephrine.

Another data set relates to leukemic CEM cells. As to the kind of experiment: Killing of leukemic CEM T-cells (DNA fragmentation). Format: cell-based.
In the next data set the target is CDK4 (Homo sapiens, UniProt P11802). As to the kind of experiment: Inhibition of the kinase CDK4. It counts as biochemical. As for the experimental part:
(§1) Contrary to this, the known compound Quercetin does inhibit the kinases CDK4 and CDK6 (applied at a dose of 50 µM).

The next data set concerns the target CDK6 (Homo sapiens, UniProt Q00534). As to the kind of experiment: Inhibition of the kinase CDK6. It counts as biochemical. As to the method: as §1
For data set [2], the system named is normal proliferating T cells (d6 T cells). As for the experimental part:
Apoptotic cell death was determined by DNA fragmentation after 48 hours.
Since proliferating cells are in general more susceptible to drug-induced apoptotic cell death, the T cells were activated through PHA stimulation and cultured for further 5 days under supplementation of IL-2 (so called d6 T cells).

A further data set deals with CDK2 (Homo sapiens, UniProt P24941). The experiment in a line: Inhibition of the cellular kinase CDK2. It counts as biochemical.
Another data set concerns the target T1, CDK9 (Homo sapiens, UniProt P50750).
T1 construct: endogenous in cells; host or cells: CEM
The experiment in a line: Duration of the inhibitory effect on CDK9 in CEM. Format: cell-based. Conditions: dose of 50 μM in CEM.

The test system of data set [3] is ventricular cardiac myocytes. The experiment in a line: Tolerance of the compound by ventricular cardiac myocytes. The following applies: even at higher doses. Format: cell-based, rat. The source says:
To test Wogonin in hypertrophic conditions, ventricular cardiac myocytes from neonatal rats were isolated.

CDK6, sequence (Q00534 whole entry, species assumed): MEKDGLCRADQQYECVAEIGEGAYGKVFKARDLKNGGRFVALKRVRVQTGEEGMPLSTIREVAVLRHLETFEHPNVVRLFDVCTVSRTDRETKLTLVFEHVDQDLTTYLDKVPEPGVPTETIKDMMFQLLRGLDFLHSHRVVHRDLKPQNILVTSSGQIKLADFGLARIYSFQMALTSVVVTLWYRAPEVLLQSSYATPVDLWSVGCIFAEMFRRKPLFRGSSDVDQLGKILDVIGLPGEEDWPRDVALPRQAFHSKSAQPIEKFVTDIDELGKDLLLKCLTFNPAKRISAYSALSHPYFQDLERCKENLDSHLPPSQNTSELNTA
CDK4, sequence (P11802 whole entry, species assumed): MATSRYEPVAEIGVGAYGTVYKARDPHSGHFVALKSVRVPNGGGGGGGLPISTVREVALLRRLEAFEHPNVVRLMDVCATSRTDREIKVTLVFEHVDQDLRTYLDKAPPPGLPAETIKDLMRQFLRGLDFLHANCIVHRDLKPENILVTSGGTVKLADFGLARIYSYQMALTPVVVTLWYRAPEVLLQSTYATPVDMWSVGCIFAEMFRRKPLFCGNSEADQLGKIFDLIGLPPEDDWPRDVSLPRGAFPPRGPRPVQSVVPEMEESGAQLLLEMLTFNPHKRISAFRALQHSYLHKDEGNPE
T1 sequence (P50750 whole entry): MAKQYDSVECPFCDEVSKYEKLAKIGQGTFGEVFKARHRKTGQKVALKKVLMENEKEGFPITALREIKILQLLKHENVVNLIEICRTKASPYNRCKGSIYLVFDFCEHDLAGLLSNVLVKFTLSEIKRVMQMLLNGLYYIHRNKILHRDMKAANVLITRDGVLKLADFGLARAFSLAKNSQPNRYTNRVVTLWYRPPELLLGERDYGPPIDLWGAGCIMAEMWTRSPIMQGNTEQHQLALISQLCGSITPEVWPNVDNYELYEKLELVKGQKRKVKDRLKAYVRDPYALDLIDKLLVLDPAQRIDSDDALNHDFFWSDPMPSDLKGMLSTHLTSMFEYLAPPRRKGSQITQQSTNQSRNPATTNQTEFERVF
T1 sequence (O60563 whole entry partner): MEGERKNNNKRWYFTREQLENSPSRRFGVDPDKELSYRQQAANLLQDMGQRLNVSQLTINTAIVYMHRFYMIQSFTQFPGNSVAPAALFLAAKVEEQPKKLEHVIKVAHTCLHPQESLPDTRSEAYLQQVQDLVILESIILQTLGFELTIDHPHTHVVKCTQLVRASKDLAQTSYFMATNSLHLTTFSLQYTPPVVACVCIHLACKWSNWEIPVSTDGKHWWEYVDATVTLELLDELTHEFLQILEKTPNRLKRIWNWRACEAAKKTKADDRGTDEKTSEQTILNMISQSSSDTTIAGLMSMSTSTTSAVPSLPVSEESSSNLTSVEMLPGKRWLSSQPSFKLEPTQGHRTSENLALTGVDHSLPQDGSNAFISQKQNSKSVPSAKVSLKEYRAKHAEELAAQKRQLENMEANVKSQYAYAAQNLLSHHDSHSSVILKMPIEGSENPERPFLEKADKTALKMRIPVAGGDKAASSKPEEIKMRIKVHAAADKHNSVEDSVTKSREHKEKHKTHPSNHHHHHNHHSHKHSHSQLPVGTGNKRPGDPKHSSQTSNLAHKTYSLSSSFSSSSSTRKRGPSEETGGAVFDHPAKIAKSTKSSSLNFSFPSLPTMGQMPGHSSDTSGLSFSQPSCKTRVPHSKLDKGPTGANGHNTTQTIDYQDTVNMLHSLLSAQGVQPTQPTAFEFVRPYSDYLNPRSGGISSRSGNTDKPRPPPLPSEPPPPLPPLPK
Protocol for CDK2: The amount of phosphorylated substrate was determined by Western Blot using phospho-specific antibodies.

In the case of `CN1CC[C@H](c2c(O)cc(O)c3c(=O)cc(-c4ccccc4Cl)oc23)[C@H](O)C1` [Flavopiridol, reference compound], the “inhibition of phosphorylation of the RNAPII C-terminal domain at Ser2 (in words)” value in data set [1] (no concentration or cell type given) is reported as “inhibits phosphorylation”. Also, the “concentration required to kill leukemic cells” value in the data set on leukemic CEM cells was around 500 nM.

With `O=c1c(O)c(-c2ccc(O)c(O)c2)oc2cc(O)cc(O)c12` [Quercetin, reference compound], at CDK4 (applied at a dose of 50 μM), the “inhibition of CDK4 (in words)” value was “does inhibit”. Moreover, at CDK6 (applied at a dose of 50 μM), the “inhibition of CDK6 (in words)” value was “does inhibit”. Further, the DNA-fragmentation entry in data set [2] (human, 48 h, 10 μM) is “more than 15%”.

For `COc1c(O)cc(O)c2c(=O)cc(-c3ccccc3)oc12` [Wogonin, 5,7-Dihydroxy-8-methoxy-flavone], the “inhibition of CDK2 (in words)” value against CDK2 is “does not strongly inhibit”. The “inhibition of CDK4 (in words)” value on CDK4 (applied at a dose of 50 μM) is recorded as “do not inhibit”; at CDK4 (no concentration given), “does not strongly inhibit”. The “inhibition of CDK6 (in words)” value is “do not inhibit” against CDK6 (applied at a dose of 50 μM) and “does not strongly inhibit” on CDK6 (no concentration given). For the same compound, the DNA-fragmentation result in data set [2] (T-cells, 48 hours, dose of 10 μM) is “less than 5%”. In data set [2] (T-cells, 48 hours, doses of 10 μM, 50 μM and 100 μM), the “DNA-fragmentation compared with Quercetin (in words)” value is recorded as “much less DNA-fragmentation”. Also, the “toxicity to normal T cells compared to other flavones tested (in words)” value in data set [2] (d6 T cells) was “particularly low toxicity”. In addition, the “toxicity to normal proliferating T cells (in words)” value in data set [2] (up to concentrations of 100 μM, in comparison to leukemic CEM cells) is “no or very low toxicity”. The “duration of inhibitory effect on CDK9 compared with Quercetin (in words)” value on CDK9 is given as “much longer inhibitory effect”. Further, the “inhibition of phenylephrine-induced phosphorylation of RNAPII (in words)” value in data set [1] (neonatal rat cardiomyocytes, 50 μM in a solution) is reported as “almost completely inhibited”. In addition, the “tolerance by the cells (in words)” value in data set [3] is given as “well supported by the cells”.
